Assay results from ChEMBL document CHEMBL2380259, “Indazole-based potent and cell-active Mps1 kinase inhibitors: rational design from pan-kinase inhibitor anthrapyrazolone (SP600125)” (J Med Chem, 2013).
pIC50: −log10 of the molar value.

Legend:
A549 = test: cells; conditions: Homo sapiens, A549, 72 h
[1] = Lipophilicity index, log K of the compound by RP-HPLC analysis; assay type: physicochemical
[2] = molecular target: T1, Dual specificity protein kinase TTK (Homo sapiens, UniProt P33981); test: Inhibition of FLAG-tagged MPS1 phosphorylation in human RERF-LC-AI Tet-off cells after 3 hrs; assay type: cell-based
T1 sequence (P33981 whole entry): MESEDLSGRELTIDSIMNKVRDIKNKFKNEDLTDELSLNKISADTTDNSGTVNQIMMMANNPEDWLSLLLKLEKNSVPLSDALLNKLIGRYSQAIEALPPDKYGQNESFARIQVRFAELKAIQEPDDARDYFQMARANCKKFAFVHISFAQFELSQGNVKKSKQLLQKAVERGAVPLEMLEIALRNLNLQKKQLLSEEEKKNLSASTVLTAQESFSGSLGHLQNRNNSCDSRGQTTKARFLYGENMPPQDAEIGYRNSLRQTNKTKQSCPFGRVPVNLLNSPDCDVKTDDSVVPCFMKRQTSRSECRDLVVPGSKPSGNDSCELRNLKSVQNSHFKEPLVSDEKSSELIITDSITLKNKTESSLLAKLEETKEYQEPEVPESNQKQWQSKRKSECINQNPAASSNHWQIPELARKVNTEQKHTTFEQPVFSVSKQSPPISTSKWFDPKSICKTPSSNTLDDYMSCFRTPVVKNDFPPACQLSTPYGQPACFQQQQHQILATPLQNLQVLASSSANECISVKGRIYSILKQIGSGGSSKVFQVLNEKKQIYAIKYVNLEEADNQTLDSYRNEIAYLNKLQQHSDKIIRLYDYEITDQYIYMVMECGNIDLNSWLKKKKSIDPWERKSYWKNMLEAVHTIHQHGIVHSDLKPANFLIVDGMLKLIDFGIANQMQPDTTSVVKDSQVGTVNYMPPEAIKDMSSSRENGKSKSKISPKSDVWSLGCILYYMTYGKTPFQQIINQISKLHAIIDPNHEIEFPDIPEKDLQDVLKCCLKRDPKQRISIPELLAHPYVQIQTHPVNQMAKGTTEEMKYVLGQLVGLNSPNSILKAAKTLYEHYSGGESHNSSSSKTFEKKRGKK

[3] = molecular target: Mitogen-activated protein kinase 8 (Homo sapiens, UniProt P45983); test: Inhibition of JNK1 (unknown origin) using ATF2 as substrate measured after 1 hr by ELISA
[4] = molecular target: T1, Dual specificity protein kinase TTK; test: Inhibition of MPS1 (unknown origin) using biotin-labeled AGAGLARHTDDEMTGYVA as substrate after 90 mins by DELFIA
[5] = molecular target: T1, Dual specificity protein kinase TTK
[6] = Apparent permeability across MDCK cells; assay type: ADME, cell-based, Canis lupus familiaris; conditions: dog
[7] = Oral bioavailability in Sprague-Dawley rat at 1 mg/kg by LC-MS/MS analysis; assay type: ADME, organism-based; conditions: in vivo
[8] = Cmax in Sprague-Dawley rat at 1 mg/kg, po by LC-MS/MS analysis; assay type: ADME, organism-based; parameters: dose 1 mg/kg, route oral; conditions: in vivo
[9] = AUC in Sprague-Dawley rat at 1 mg/kg, po by LC-MS/MS analysis; assay type: ADME, organism-based; parameters: dose 1 mg/kg, route oral; conditions: plasma
[10] = Volume of distribution at steady state in Sprague-Dawley rat at 0.5 mg/kg, iv by LC-MS/MS analysis; assay type: ADME, organism-based; parameters: dose 0.5 mg/kg, route intravenous; conditions: in vivo, read-out: Vdss
[11] = Clearance in Sprague-Dawley rat at 0.5 mg/kg, iv by LC-MS/MS analysis; assay type: ADME, organism-based; parameters: dose 0.5 mg/kg, route intravenous; conditions: in vivo
[12] = Metabolic stability in Sprague-Dawley rat hepatocytes assessed as compound remaining at 2 uM after 1 hr by LC-MS/MS analysis; assay type: ADME, cell-based, Hepatocyte; conditions: read-out: Stability
[13] = molecular target: Serine/threonine-protein kinase PLK1 (Homo sapiens, UniProt P53350); test: Inhibition of human PLK1
Serine/threonine-protein kinase PLK1, sequence (P53350 whole entry): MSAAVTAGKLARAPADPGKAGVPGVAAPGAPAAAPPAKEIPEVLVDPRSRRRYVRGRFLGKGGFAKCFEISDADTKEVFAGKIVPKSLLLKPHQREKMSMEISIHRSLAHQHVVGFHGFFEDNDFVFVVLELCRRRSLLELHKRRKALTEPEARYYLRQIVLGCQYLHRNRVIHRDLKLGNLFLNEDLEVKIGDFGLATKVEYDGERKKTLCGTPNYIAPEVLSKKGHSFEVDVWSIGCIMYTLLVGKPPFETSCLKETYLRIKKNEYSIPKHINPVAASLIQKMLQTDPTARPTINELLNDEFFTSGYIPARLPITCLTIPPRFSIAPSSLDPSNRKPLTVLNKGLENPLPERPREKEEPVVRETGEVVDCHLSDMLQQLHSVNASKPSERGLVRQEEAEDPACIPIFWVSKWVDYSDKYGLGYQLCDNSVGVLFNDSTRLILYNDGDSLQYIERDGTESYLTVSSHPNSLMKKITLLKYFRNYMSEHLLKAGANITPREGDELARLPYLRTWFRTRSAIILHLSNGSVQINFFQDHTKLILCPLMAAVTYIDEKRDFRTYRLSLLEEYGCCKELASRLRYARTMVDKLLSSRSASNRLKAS

Mitogen-activated protein kinase 8, sequence (P45983 whole entry): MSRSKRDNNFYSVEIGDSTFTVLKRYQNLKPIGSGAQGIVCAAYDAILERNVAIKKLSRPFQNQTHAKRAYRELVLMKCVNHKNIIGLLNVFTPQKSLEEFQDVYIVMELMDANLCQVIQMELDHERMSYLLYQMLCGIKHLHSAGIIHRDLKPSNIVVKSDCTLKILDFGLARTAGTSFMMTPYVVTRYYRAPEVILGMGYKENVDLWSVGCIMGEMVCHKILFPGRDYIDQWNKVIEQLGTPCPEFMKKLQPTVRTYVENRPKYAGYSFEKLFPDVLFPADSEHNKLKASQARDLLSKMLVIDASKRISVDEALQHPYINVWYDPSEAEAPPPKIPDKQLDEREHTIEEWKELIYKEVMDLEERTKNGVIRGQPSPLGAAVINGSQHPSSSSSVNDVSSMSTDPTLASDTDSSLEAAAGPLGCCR

| pIC50 (A549) | log K [1] | pIC50 [2] | pIC50 [3] | pIC50 [4] | Structure (SMILES) | other results |
| --- | --- | --- | --- | --- | --- | --- |
| 5.90 | – | – | – | – | CCc1cccc(CC)c1NC(=O)c1nn(C)c2c1CCc1cnc(Nc3ccc(C(=O)NC4CCN(C)CC4)cc3OC(F)(F)F)nc1-2 | – |
| < 5.00 | 0.91 | < 5.00 | 5.99 | 6.76 | CCOc1cc2c(-c3cccc(S(N)(=O)=O)c3)n[nH]c2cc1-c1ccccc1 | – |
| 6.55 | 0.94 | 7.52 | 7.92 | 7.92 | CC(=O)Nc1cccc(-c2n[nH]c3cc(-c4cnn(C)c4)c(NC4CCCCC4)cc23)c1 | bioavailability [7]: 17%; Cmax [8]: 18 ng/mL; AUC [9]: 149 ng·h/mL; Vd [10]: 1 L/kg; clearance [11]: 19 mL/min/kg; remaining at 1 h, 2 µM [12]: 64%; pIC50 [13]: < 5.30; Papp [6]: 20.5 ×10⁻⁶ cm/s |
| – | – | – | – | 6.30 | CCOc1ccc2[nH]nc(-c3ccccc3)c2c1 | – |
| 6.19 | 0.93 | 7.13 | 6.93 | 8.10 | Cn1cc(-c2cc3[nH]nc(-c4cccc(S(N)(=O)=O)c4)c3cc2OC2CCCCC2)cn1 | – |

More lines, now with the values behind:

| Structure (SMILES) | pIC50 (A549) | log K [1] | pIC50 [2] | pIC50 [3] | pIC50 [4] | other results |
| --- | --- | --- | --- | --- | --- | --- |
| CCOc1cc2c(-c3ccc(C)c(S(N)(=O)=O)c3)n[nH]c2cc1-c1cnn(C)c1 | 6.16 | 0.82 | 6.70 | 7.36 | 8.44 | – |
| Oc1c2ccccc2c2c3c(cccc13)N=N2 [SP-600125] | – | – | – | – | – | pIC50 [5]: 7.01 |
| CCOc1cc2c(-c3cccc(NC(C)=O)c3)n[nH]c2cc1C#N | 5.20 | 0.87 | 5.01 | 7.37 | 7.49 | – |
| CCOc1cc2c(-c3cccc(S(N)(=O)=O)c3)n[nH]c2cc1-c1cnn(C)c1 | 5.99 | 0.79 | 7.07 | 7.03 | 8.51 | Papp [6]: 0.6 ×10⁻⁶ cm/s |
| CCOc1ccc2[nH]nc(-c3cccc(NC(C)=O)c3)c2c1 | – | – | – | 7.10 | 6.94 | – |
| CCOc1cc2c(-c3cccc(S(N)(=O)=O)c3)n[nH]c2cc1-c1cn[nH]c1 | < 5.00 | 0.74 | 5.68 | 6.85 | 8.01 | – |
| CCOc1ccc2[nH]nc(-c3cccc(S(N)(=O)=O)c3)c2c1 | < 4.70 | 0.79 | 5.56 | 6.82 | 7.55 | – |
| Cc1cc(N2CCOCC2)ccc1Nc1nc(NC2CCCCC2)c2nc[nH]c2n1 | < 5.00 | – | – | – | – | – |
| Cn1cc(-c2cc3[nH]nc(-c4cccc(S(N)(=O)=O)c4)c3cc2NC2CCCCC2)cn1 | 6.82 | 0.92 | 7.69 | 7.43 | 7.98 | bioavailability [7]: 2.3%; Cmax [8]: 1.4 ng/mL; AUC [9]: 11.5 ng·h/mL; Vd [10]: 2.8 L/kg; clearance [11]: 33 mL/min/kg; remaining at 1 h, 2 µM [12]: 69%; pIC50 [13]: < 5.30; Papp [6]: 2.69 ×10⁻⁶ cm/s |
| c1ccc(-c2[nH]nc3ccccc23)cc1 | – | – | – | – | 5.68 | – |
| CCOc1ccc2[nH]nc(-c3ccc(NC(C)=O)cc3)c2c1 | – | – | – | 6.77 | 6.36 | – |
| CCOc1cc2c(-c3cccc(S(N)(=O)=O)c3)n[nH]c2cc1-c1cnn(CC(C)C)c1 | 5.19 | 0.87 | 5.39 | 6.36 | 6.92 | – |
| CCOc1cc2c(-c3cccc(S(N)(=O)=O)c3)n[nH]c2cc1C#N | < 4.70 | 0.86 | 5.47 | 6.76 | 7.77 | – |
| CCOc1ccc2[nH]nc(-c3cccc(C(N)=O)c3)c2c1 | – | – | – | 7.37 | 6.72 | – |
